Experimental data reported in US20230265438A1, “NUCLEIC ACIDS FOR INHIBITING EXPRESSION OF CNNM4 IN A CELL” (ASOCIACIÓN CENTRO DE INVESTIGACIÓN COOPERATIVA EN …, priority 2020, published 2023).
Oligonucleotides are written 5' to 3', each unit as a sugar letter and its base; * is a phosphorothioate linkage, no mark a phosphodiester; rarer units and linkages stand in square brackets, end groups in braces. Plain capitals give the bases only. {ST23(ps)x3-ST43} = conjugate of three ST23 units joined by phosphorothioates, then ST43, saccharide (preferably GalNAc) moiety; {VP} = (E)-vinylphosphonate; m = 2'-O-methyl; f = 2'-fluoro

Experiments:
primary hepatocytes [1] = experiment: Lipid content in NASH-induced primary hepatocytes, BODIPY (Example 1); type: cell-based, mouse
Description: Primary hepatocytes from 3-month old wild-type (C57BL/6J) mice were isolated by perfusion with collagenase Type I (Worthington, USA). Briefly, animals were anesthetized with isoflurane (1.5% isoflurane in O2). […] Liver was perfused with buffer A (1x PBS, 5 mM EGTA, 37° C. and oxygenated) and the portal vein was cut. Next, liver was perfused with buffer B (1x PBS, 1 mM CaCl2 37° C. and oxygenated) to remove EGTA, and finally perfused with buffer C (1x PBS, 2 mM CaCl2, 0.65 BSA, collagenase type I, 37° C. and oxygenated). After buffer C perfusion, liver was separated from the resto of the body and placed into a petri dish with MEM (Gibco, USA). Gall bladder was carefully removed and, then, liver was mechanically disaggregated with forceps. […]
(§1) Primary hepatocytes cultured in high lipid content medium (OA) or methionine/choline deficient medium (MDMC) were fixed in 4% paraformaldehyde (10′, RT) in PBS and incubated with BODIPY 493/503 (Molecular Probes, Invitrogen) at 1 mg/ml (1h, RT). […] Quantification of lipid bodies was performed using Frida Software and represented as mean area per total number of cells.

primary hepatocytes [2] = experiment: Intracellular magnesium levels in primary hepatocytes (Example 1); type: cell-based, mouse; settings: NASH-induced primary hepatocytes; FIG. 7B
Description: Primary hepatocytes grown in glass coverslips were loaded with 2 µM Mag-S-Tz or 1 µM Mag-S-Tz-AM diluted REF (Gruskos et al., 2016. J. Am. Chem. Soc. 138 (44), pp 14639-14649) in 0% FBS/1% PSG medium and incubated at 37° C. and 5% CO2 during 30′ or 1 h respectively. After removing the dye-containing medium, a 30′ incubation in 0% FBS/1% PSG was performed. Coverslips were then washed in a 20 mM Tris-HCl, 2.4 mM CaCl2, 10 mM glucose, pH 7.4 buffer and mounted on a perfusion chamber with thermostat on a Eclipse TE 300-based microspectrofluorometer (Nikon, USA) and visualized with a 40x oil-immersion fluorescence. Intracellular Mg2+ levels were determines using the method described by Grynkiewicz (Grynkiewiz et al., 1985. J Biol Chem. 260(6):3440-50). The 340/380 nm excited light ratio was determined with a Delta system (Photon Technologies International, Princeton) and converted into Mg^2+ concentration from the standard equation: […]

ASGP-R complex = molecular target: T1, ASGP-R complex (Homo sapiens, UniProt P07306+P07307); settings: cited from earlier work
T1 sequence (P07306 1-291): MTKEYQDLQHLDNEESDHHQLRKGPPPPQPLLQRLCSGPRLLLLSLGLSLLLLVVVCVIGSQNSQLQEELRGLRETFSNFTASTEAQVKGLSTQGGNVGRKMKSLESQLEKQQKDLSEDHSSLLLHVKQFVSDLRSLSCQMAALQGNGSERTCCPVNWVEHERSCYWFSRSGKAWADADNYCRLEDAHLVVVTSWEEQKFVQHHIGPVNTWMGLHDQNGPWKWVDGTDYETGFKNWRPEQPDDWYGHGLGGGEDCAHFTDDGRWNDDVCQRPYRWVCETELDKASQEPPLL
T1 sequence (P07307 1-311): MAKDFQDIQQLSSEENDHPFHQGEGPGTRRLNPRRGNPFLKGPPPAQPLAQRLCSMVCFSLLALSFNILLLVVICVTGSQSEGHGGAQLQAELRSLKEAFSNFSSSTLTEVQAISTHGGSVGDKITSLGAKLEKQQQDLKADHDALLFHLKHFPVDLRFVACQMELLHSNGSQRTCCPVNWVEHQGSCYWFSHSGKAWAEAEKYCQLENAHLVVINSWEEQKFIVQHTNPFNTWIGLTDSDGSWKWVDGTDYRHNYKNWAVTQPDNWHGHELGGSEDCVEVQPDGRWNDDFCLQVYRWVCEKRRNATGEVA

THLE2 cells = experiment: Lipid accumulation in NASH-induced human cells (THLE2) (Example 1); type: cell-based; settings: FIG. 4A, 4B
Description: THLE-2 cells were purchased from ATCC (ATCC® CRL-2706TM). They were maintained on Bronchial Epithelial Growth Medium (BEGMTM, Lonza) supplemented with BEGM Bullet KitTM (Lonza) and 10%FBS. They were split with 0.05% trypsin-EDTA and collected in BEGM. After centrifugation at 123 g during 5 minutes, supernatant was discarded and pellet resuspended.
Cells were transfected with specific siRNAs (Hs n7o for human CNNM4 and Mm n7o for mouse CNNM4) at a final concentration of 100 nM using DharmaFECT 1 reagent (Dharmacon) following manufacturer’s protocol. DharmaFECT 1 and siRNA were diluted separately in 0% FBS/1% PSG MEM for 5′ at RT. Dilutions were then mixed and incubated 20′ at RT. siRNA transfection mixes were then added to cell suspension medium and replaced for fresh medium after 6 h.
Cells were transfected with a CNNM4 shRNA (SEQ ID NO: 454) by using lipofectamine® 3000 (Thermofisher) and following the protocol according manufacturer instructions. […]
as §1

CNNM4 mRNA = CNNM4 mRNA in liver of wild-type mice after single subcutaneous dose (Examples 12-14); type: in vivo, mouse; settings: wild-type C57BL/6 mice
Description: (§2) Five- to seven-week old male C57BL/6 mice were treated with a single dose of 1 or 5 mg siRNA conjugate per kg body weight by subcutaneous injection. Control groups received a subcutaneous injection with the vehicle PBS. Two weeks after the treatment, liver samples were collected from all mice and snap frozen. RNA was extracted from liver samples and CNNM4 and Actin mRNA levels were determined by Taqman qRT-PCR. Values obtained for CNNM4 mRNA were normalized to values generated for the housekeeping gene Actin and related to mean of untreated sample (ut) set at 1-fold target gene expression. Each bar represents mean value from 6 animals +/-SD.
Five- to seven-week old male C57BL/6 mice were treated with a single dose of 0.3 or 1 mg siRNA conjugate per kg body weight by subcutaneous injection. Control groups received a subcutaneous injection with the vehicle PBS. Two weeks after the treatment, liver samples were collected from all mice and snap frozen. RNA was extracted from liver samples and CNNM4 and Actin mRNA levels were determined by Taqman qRT-PCR. Values obtained for CNNM4 mRNA were normalized to values generated for the housekeeping gene Actin and related to mean of untreated sample (ut) set at 1-fold target gene expression. Each bar represents mean value from 6 animals +/-SD.
as §2, with “1” for “1 or 5”, “Five” for “Two”, “PBS treated cohort (PBS)” for “untreated sample (ut)”

0.1% MCDD NASH model = experiment: Rodent 0.1% MCDD NASH model: steatosis, ROS, macrophages, fibrosis, serum Mg2+ (Example 18); type: in vivo, mouse; settings: 0.1% MCDD mice
Description: Three-month old male C57BL/6 mice were maintained on a diet deficient in choline with 0.1% methionine (0.1%MCDD) (A02082006i, Research Diets, Inc., New Jersey, USA) for six weeks or fed a standard chow (SC). After three weeks of 0.1% MCDD, mice were treated with […] CNNM4 siRNA conjugate (EU414) per body weight. Control groups fed with 0.1% MCD received 1 mg/kg non-targeting siRNA conjugate (EU400). Control mice fed with normal chow (SC) received the vehicle PBS at the same time point (three weeks). Liver samples were collected from all mice at the end of the study and cryopreserved by embedding in […] cryocompound (OCT) or fixed with formalin and embedded in paraffin for preparation of sections. Lipid bodies and reactive oxygen species (ROS) were detected in cryosections by staining with Sudan red and Dihydroxyetidium (DHE), respectively. Liver fibrosis was assessed in paraffine sections by staining of the smooth muscle cell marker alpha smooth muscle actin (αSMA) by immunohistochemistry, as well as by detection of collagen fibers by Sirius red staining. Macrophages were detected by immunohistochemistry, by F4/80 staining of paraffin-embedded liver sections. Blood samples were collected from all animals at the six-week time point for serum preparation. Serum Mg^2+ levels were then determined using the QuantiCrom™Magnesium Assay Kit (BioAssay Systems, USA).
These figures show quantifications of stained area percentages from each individual staining calculated using FIJI (https://imagej.net/Fiji.) in box and whisker plots with 5-95% percentile. n=5-7. (a.u. = arbitrary units).

murine hepatocytes = experiment: Acetaminophen (APAP) induced cell death in hepatocytes, Tunel and Trypan Blue (Example 19); type: cell-based; settings: 1 nM and 10 nM for 6 hours, 10 mM acetaminophen for 6 hours
Description: Freshly prepared murine hepatocytes were seeded in multi-well plates. Upon attachment, cells were incubated for 6 hours with 1 nM and 10 nM of EU404 or EU414 or left untreated. Thereafter, cells were cultured in serum-free culture medium (MEM) for 13 to 14 hours. Subsequently, they remained untreated (Ut) or 10 mM acetaminophen was added to the medium (APAP). 6 hours later, cells were stained by Tunel assay or Trypan Blue staining to determine the proportion of cells that were necrotic (Tunel positive) or had undergone cell death (Trypan Blue positive).

CNNM4 = CNNM4 expression in hepatocytes of the APAP experiment (Example 19); type: cell-based; settings: murine hepatocytes, 1 nM and 10 nM for 6 hours; FIG. 25A

Nc1c[nH]c(=O)c2cc(-c3ccccc3)sc12 [7-amino-2-phenyl-5H-thieno[3,2-c]pyridin-4-one, reference compound]
Lipid content (primary hepatocytes [1]; NASH-induced primary hepatocytes, FIG. 3A, 5A, 7A): decreases its lipid content | Intracellular magnesium levels (primary hepatocytes [2]): accumulate magnesium

CC(=O)N[C@H]1C(O)O[C@H](CO)[C@H](O)[C@@H]1O (stereo partly drawn) [GalNAc, 2-(Acetylamino)-2-deoxy-D-galactopyranose]
Affinity for the ASGP-R complex relative to D-Gal (ASGP-R complex): 50 fold

CNNM4 shRNA: CNNM4 shRNA (SEQ ID NO: 454) (UCUCUGCCUUCAAGGAUGCGGACAAUGAG; listed as RNA, chemistry not fully specified)
Lipid content (THLE2 cells): returns to healthy levels

EU414: CNNM4 siRNA conjugate, duplex EU414A/EU414B; consists of SEQ ID NO: 237 and SEQ ID NO: 238 (chain 1 {VP}-mUfGmAfCmAfAmAfAmGfAmCfAmCfAmAfGmA*fG*mU; chain 2 {ST23(ps)x3-ST43}*mAmCmUmCmUmUfGfUfGmUmCmUmUmUmUmGmU*mC*mA)
CNNM4 mRNA levels in the liver (CNNM4 mRNA; two weeks after single dose of 1 or 5 mg/kg s.c., FIG. 18): reduction of CNNM4 mRNA levels | Liver steatosis (lipid bodies, Sudan red) (0.1% MCDD NASH model; 1 or 5 mg/kg at week 3, liver at week 6, FIG. 24A): reduction of liver steatosis | Reactive oxygen species (DHE staining) (0.1% MCDD NASH model; 1 or 5 mg/kg at week 3, liver at week 6, FIG. 24B): reduction of reactive oxygen species | Macrophage infiltration (F4/80 positive cells) in the liver (0.1% MCDD NASH model; 1 or 5 mg/kg at week 3, liver at week 6, FIG. 24C): reduction of macrophage infiltration | Liver fibrosis (αSMA, Sirius red) (0.1% MCDD NASH model; 1 or 5 mg/kg at week 3, liver at week 6, FIGS. 24D and 24E): reduction in liver fibrosis | Serum Mg2+ levels (0.1% MCDD NASH model; 1 or 5 mg/kg at week 3, serum at six-week time point, FIG. 24F): reduction of serum Mg^2+ levels | Tripan Blue positive cells (cell death marker) (murine hepatocytes): reduction | Tunel positive cells (necrosis marker) (murine hepatocytes): reduction of Tunel positive cells | CNNM4 expression (CNNM4): reduction of CNNM4 expression

EU420: CNNM4 siRNA conjugate, duplex EU414A/EU420B; consists of SEQ ID NO: 237 and SEQ ID NO: 460 (chain 1 UGACAAAAGACACAAGAGU; chain 2 ACUCUUGUGUCUUUUGUCA; conjugate, chemistry not fully specified)
CNNM4 mRNA levels in the liver (CNNM4 mRNA; five weeks after single dose of 1 mg/kg s.c., FIG. 20): reduction of CNNM4 mRNA levels | CNNM4 mRNA levels in the liver (CNNM4 mRNA; two weeks after single dose of 0.3 or 1 mg/kg s.c., FIG. 19): reduction of CNNM4 mRNA levels

Magnesium
Lipid content (primary hepatocytes [1]; primary hepatocytes with CNNM4 overexpression, FIG. 5B): does not reduce lipid content
